By IC50 is commonly meant the concentration needed to halve the response being measured. Higher therefore signals a need for much substance.

Structures are written as SMILES.

The values that follow come from patent US20230086702A1, “SUBSTITUTED 2-AMINO-PYRAZOLYL-[1,2,4]TRIAZOLO[1,5A]PYRIDINE DERIVATIVES AND USE THEREOF” (The Johns Hopkins University, priority 2019, published 2023).

One experiment has as its target T1, DLK (Homo sapiens, UniProt Q12852).
T1 construct: 10 nM DLK, catalytic domain, Carna Biosiences; purchased Carna Biosciences ('Carna Biosiences' [sic])
T1 sequence (Q12852 125-366 limits assumed): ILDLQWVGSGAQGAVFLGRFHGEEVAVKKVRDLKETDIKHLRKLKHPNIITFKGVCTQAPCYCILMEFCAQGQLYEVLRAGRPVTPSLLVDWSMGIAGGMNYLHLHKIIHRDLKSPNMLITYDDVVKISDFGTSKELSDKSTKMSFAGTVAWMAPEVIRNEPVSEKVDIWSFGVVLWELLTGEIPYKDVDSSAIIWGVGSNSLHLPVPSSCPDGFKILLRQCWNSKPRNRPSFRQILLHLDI
Nature of the experiment: DLK biochemical assay (TR-FRET, MKK7 phosphorylation). An outline of the steps: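 DLK catalytic domain (10 nM) phosphorylates His-MKK7 (15 nM) at 60 μM ATP for 90 min at RT in pH 7.5 Hepes buffer (final concentrations). Phospho-T275/S277 is detected by TR-FRET (Eu anti-phospho donor, XL665 anti-His acceptor) after 16 h at 37° C (1536 format) or 4° C (384 format).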
For orientation: Time-resolved FRET reads energy transfer from a long-lived donor to a nearby acceptor.

The next experiment concerns the target T2, LZK (Homo sapiens, UniProt O43283).
T2 construct: 10 nM LZK, catalytic domain, Carna Biosiences in assay buffer; purchased Carna Biosciences ('Carna Biosiences' [sic])
T2 sequence (O43283 168-409 limits assumed): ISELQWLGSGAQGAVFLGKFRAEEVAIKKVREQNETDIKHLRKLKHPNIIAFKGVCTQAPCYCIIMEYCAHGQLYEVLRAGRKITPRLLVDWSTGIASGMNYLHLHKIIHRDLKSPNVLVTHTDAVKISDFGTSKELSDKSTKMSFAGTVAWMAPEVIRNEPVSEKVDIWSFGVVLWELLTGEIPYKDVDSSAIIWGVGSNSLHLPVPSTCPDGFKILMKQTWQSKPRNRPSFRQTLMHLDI
Nature of the experiment: LZK biochemical assay (TR-FRET, MKK7 phosphorylation). In short, it runs like this:
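LZK catalytic domain (10 nM) phosphorylates His-MKK7 (15 nM) with 15 µM ATP, all final, for 90 min at RT in HEPES buffer pH 7.5 with MgCl2. Phospho-T275/S277 detected by TR-FRET (Eu anti-phospho donor, XL665 anti-His acceptor) after 16 h at 32 °C in EDTA stop buffer. Inhibition lowers the 665/Eu ratio.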

As for `CC(C)C(c1ccc(C(F)(F)F)nc1)n1cc(-c2cc(-c3ccc(C(F)F)nc3)n3nc(N)nc3c2)cn1` (racemic) [II-70, 5-[6-(Difluoromethyl)pyridin-3-yl]-7-(1-{2-methyl-1-[6-(trifluoromethyl)pyridin-3-yl]propyl}-1H-pyrazol-4-yl)[1,2,4]triazolo[1,5-a]pyridin-2-amine], the IC50 was 26 nM against DLK and 15 nM on LZK.
For the molecule `Nc1nc2c(-c3ccn(CC(F)(F)F)c(=O)c3)cc(-c3cnn(C(c4ccc(C(F)(F)F)nc4)C4CCOCC4)c3)cn2n1` (single isomer, unassigned) [II-177, 4-[2-Amino-6-(1-{tetrahydro-2H-pyran-4-yl[6-(trifluoromethyl)pyridin-3-yl]methyl}-1H-pyrazol-4-yl)[1,2,4]triazolo[1,5-a]pyridin-8-yl]-1-(2,2,2-trifluoroethyl)pyridin-2(1H)-one], the IC50 turned out to be 10 nM on DLK and 33 nM at LZK.
Consider `CCC(c1ccc(C(F)(F)F)cc1)n1cc(-c2cc(-c3cnn(C4CCCC4)c3)n3nc(N)nc3c2)cn1` (stereo not drawn) [II-132], for which the IC50 against DLK came to 71 nM; against LZK it was 120 nM.
Take `CCC(c1ccc(C(F)(F)F)nc1)n1cc(-c2cc(-c3ccc(=O)n(C(F)F)c3)n3nc(N)nc3c2)cn1` (stereo not drawn) [II-179]: the IC50 on DLK was determined as 12 nM; on LZK, 8 nM.
Regarding `CC[C@@H](c1ccccc1)n1cc(-c2cc(-c3cnn(CC(F)(F)F)c3)n3nc(N)nc3c2)cn1` [II-127, 7-{1-[(1S)-1-Phenylpropyl]-1H-pyrazol-4-yl}-5-[1-(2,2,2-trifluoroethyl)-1H-pyrazol-4-yl][1,2,4]triazolo[1,5-a]pyridin-2-amine], the concentration for half-maximal inhibition (IC50) came out at 8.4 nM against DLK and 99 nM against LZK.
In the same order, the values of `COc1cc([C@H](C(C)C)n2cc(-c3cc(-c4cnn(CC(F)(F)F)c4)n4nc(N)nc4c3)cn2)ccn1` [II-138] are 1.7 nM and 29 nM.
Take `CCC(c1ccc(N2CCOCC2)cc1)n1cc(-c2cc(-c3cnn(CC(F)(F)F)c3)c3nc(N)nn3c2)cn1` (racemic) [II-102, 6-(1-{1-[4-(Morpholin-4-yl)phenyl]propyl}-1H-pyrazol-4-yl)-8-[1-(2,2,2-trifluoroethyl)-1H-pyrazol-4-yl][1,2,4]triazolo[1,5-a]pyridin-2-amine]: the IC50 at DLK was 5.7 nM; on LZK, 140 nM.
On the same counts, the results for `Nc1nc2c(-c3cnn(CC(F)(F)F)c3)cc(-c3cnn(C(c4ccc(C(F)(F)F)nc4)C4CCOCC4)c3)cn2n1` (racemic) [II-117, 6-(1-{Tetrahydro-2H-pyran-4-yl[6-(trifluoromethyl)pyridin-3-yl]methyl}-1H-pyrazol-4-yl)-8-[1-(2,2,2-trifluoroethyl)-1H-pyrazol-4-yl][1,2,4]triazolo[1,5-a]pyridin-2-amine] are 3.8 nM and 29 nM.
As for `CCC(c1ccc(C(F)(F)F)nc1)n1cc(-c2cc(-c3cc(CO)ccc3Cl)c3nc(N)nn3c2)cn1` (single isomer, unassigned) [II-2, {3-[2-Amino-6-(1-{1-[6-(trifluoromethyl)pyridin-3-yl]propyl}-1H-pyrazol-4-yl)[1,2,4]triazolo[1,5-a]pyridin-8-yl]-4-chlorophenyl}methanol], the half-maximal inhibitory concentration (IC50) against DLK is 170 nM; against LZK, 30 nM.
In the case of `COc1cc(C(C(C)C)n2cc(-c3cc(-c4cnn(CC(F)(F)F)c4)n4nc(N)nc4c3)cn2)ccn1` (stereo not drawn) [II-136], the figures for the half-maximal inhibitory concentration (IC50) against DLK and at LZK were 3.4 nM and 48 nM, respectively.
On the same counts, the results for `Nc1nc2cc(-c3cnn(Cc4ccccc4)c3)cc(-c3cnccn3)n2n1` [II-86, 7-(1-Benzyl-1H-pyrazol-4-yl)-5-(pyrazin-2-yl)[1,2,4]triazolo[1,5-a]pyridin-2-amine] are 54 nM and 900 nM.
In the same order, the values of `CC(C)C(c1ccc(C(F)(F)F)nc1)n1cc(-c2cc(-c3ccc(C(F)(F)F)nc3)c3nc(N)nn3c2)cn1` (single isomer, unassigned) [II-41, 6-(1-{2-Methyl-1-[6-(trifluoromethyl)pyridin-3-yl]propyl}-1H-pyrazol-4-yl)-8-[6-(trifluoromethyl)pyridin-3-yl][1,2,4]triazolo[1,5-a]pyridin-2-amine] are 380 nM and 770 nM.
In the same order, the values of `CCC(c1ccc(C(F)(F)F)cc1)n1cc(-c2cc(-c3cnn(C)c3)c3nc(N)nn3c2)cn1` (single isomer, unassigned) [II-100, 8-(1-Methyl-1H-pyrazol-4-yl)-6-(1-{1-[4-(trifluoromethyl)phenyl]propyl}-1H-pyrazol-4-yl)[1,2,4]triazolo[1,5-a]pyridin-2-amine] are 58 nM and 500 nM.
Regarding `CCC(c1ccc(C(F)(F)F)cc1)n1cc(-c2cc(-c3cnn(C)c3)c3nc(N)nn3c2)cn1` (single isomer, unassigned) [II-101, 8-(1-Methyl-1H-pyrazol-4-yl)-6-(1-{1-[4-(trifluoromethyl)phenyl]propyl}-1H-pyrazol-4-yl)[1,2,4]triazolo[1,5-a]pyridin-2-amine], the IC50 at DLK stood at 6.8 nM; against LZK, 110 nM.
As to `Nc1nc2cc(-c3cnn(C(c4ccc(C(F)(F)F)nc4)C4CCOCC4)c3)cc(-c3ccc(=O)n(C(F)F)c3)n2n1` (single isomer, unassigned) [II-183, 5-[2-Amino-7-(1-{tetrahydro-2H-pyran-4-yl[6-(trifluoromethyl)pyridin-3-yl]methyl}-1H-pyrazol-4-yl)[1,2,4]triazolo[1,5-a]pyridin-5-yl]-1-(difluoromethyl)pyridin-2(1H)-one], the values for the half-inhibitory concentration (IC50) against DLK and at LZK were 22 nM and 19 nM, respectively.
In the same order, the values of `Nc1nc2cc(-c3cnn(Cc4ccccc4)c3)cc(-c3cnn(C4CCOC4)c3)n2n1` (stereo not drawn) [II-125] are 17 nM and 160 nM.
In the same order, the values of `CCC(c1ccc(C(F)F)nc1)n1cc(-c2cc(-c3ccc(C(F)(F)F)nc3)n3nc(N)nc3c2)cn1` (single isomer, unassigned) [II-62, 7-(1-{1-[6-(Difluoromethyl)pyridin-3-yl]propyl}-1H-pyrazol-4-yl)-5-[6-(trifluoromethyl)pyridin-3-yl][1,2,4]triazolo[1,5-a]pyridin-2-amine] are 440 nM and 220 nM.
On to `CC[C@@H](c1ccccc1)n1cc(-c2cc(-c3cnn(C(C)C(F)(F)F)c3)c3nc(N)nn3c2)cn1` (mixture of isomers) [II-94, 6-{1-[(15)-1-Phenylpropyl]-1H-pyrazol-4-yl}-8-[1-(1,1,1-trifluoropropan-2-yl)-1H-pyrazol-4-yl][1,2,4]triazolo[1,5-a]pyridin-2-amine], for which the IC50 stood at 22 nM against DLK and 200 nM at LZK.
In the same order, the values of `CC(C)[C@@H](c1ccc(C(F)(F)F)nc1)n1cc(-c2cc(-c3cnn(C4CCCC4)c3)n3nc(N)nc3c2)cn1` [II-145] are 3.3 nM and 9.9 nM.
Take `Nc1nc2c(-c3cccc(S(=O)(=O)C(F)(F)F)c3)cc(-c3cnn(C(c4ccc(C(F)(F)F)nc4)C4CCOCC4)c3)cn2n1` (single isomer, unassigned) [II-21, 6-(1-{Tetrahydro-2H-pyran-4-yl[6-(trifluoromethyl)pyridin-3-yl]methyl}-1H-pyrazol-4-yl)-8-{3-[(trifluoromethyl)sulfonyl]phenyl}[1,2,4]triazolo[1,5-a]pyridin-2-amine]: the IC50 on DLK is 7.6 nM; against LZK, 14 nM.
On the same counts, the results for `Nc1nc2cc(-c3cnn(Cc4ccccc4)c3)cc(-c3cnn(C(F)F)c3)n2n1` [II-121, 7-(1-Benzyl-1H-pyrazol-4-yl)-5-[1-(difluoromethyl)-1H-pyrazol-4-yl][1,2,4]triazolo[1,5-a]pyridin-2-amine] are 32 nM and 150 nM.
In the same order, the values of `CC(C)C(c1ccc(C(F)(F)F)nc1)n1cc(-c2cc(-c3ccc(C(F)F)nc3)n3nc(N)nc3c2)cn1` (single isomer, unassigned) [II-71, 5-[6-(Difluoromethyl)pyridin-3-yl]-7-(1-{2-methyl-1-[6-(trifluoromethyl)pyridin-3-yl]propyl}-1H-pyrazol-4-yl)[1,2,4]triazolo[1,5-a]pyridin-2-amine] are 160 nM and 74 nM.
Consider `CC(C)C(c1ccc(C(F)(F)F)nc1)n1cc(-c2cc(-c3cnn(CC(F)(F)F)c3)n3nc(N)nc3c2)cn1` (stereo not drawn) [II-139], for which the IC50 at DLK was 11 nM; against LZK it was 27 nM.
In the same order, the values of `Nc1nc2cc(-c3cnn(C(c4ccc(C(F)(F)F)nc4)C4CCOCC4)c3)cc(-c3cn(CC(F)(F)F)c(=O)cn3)n2n1` (racemic) [II-194, 5-[2-Amino-7-(1-{tetrahydro-2H-pyran-4-yl[6-(trifluoromethyl)pyridin-3-yl]methyl}-1H-pyrazol-4-yl)[1,2,4]triazolo[1,5-a]pyridin-5-yl]-1-(2,2,2-trifluoroethyl)pyrazin-2(1H)-one] are 3.6 nM and 17 nM.
